Laboratory results published in PMC10296347, “Identification of the Stapled α-Helical Peptide ATSP-7041 as a Substrate and Strong Inhibitor of OATP1B1 In Vitro” (Biomolecules, 2023).

Assays:
P-gp = P-gp (Homo sapiens, UniProt P08183); experiment: ATP-dependent uptake by inside-out membrane vesicles expressing P-gp; conditions: NMQ 2 μM
OATP1B1 [1] = molecular target: T1, OATP1B1 (Homo sapiens, UniProt Q9Y6L6); experiment: Uptake by OATP1B1-expressing HEK293 cells (substrate evaluation); conditions: E217βG 1 μM, 5 min, 37 °C
T1 sequence (Q9Y6L6 1-691): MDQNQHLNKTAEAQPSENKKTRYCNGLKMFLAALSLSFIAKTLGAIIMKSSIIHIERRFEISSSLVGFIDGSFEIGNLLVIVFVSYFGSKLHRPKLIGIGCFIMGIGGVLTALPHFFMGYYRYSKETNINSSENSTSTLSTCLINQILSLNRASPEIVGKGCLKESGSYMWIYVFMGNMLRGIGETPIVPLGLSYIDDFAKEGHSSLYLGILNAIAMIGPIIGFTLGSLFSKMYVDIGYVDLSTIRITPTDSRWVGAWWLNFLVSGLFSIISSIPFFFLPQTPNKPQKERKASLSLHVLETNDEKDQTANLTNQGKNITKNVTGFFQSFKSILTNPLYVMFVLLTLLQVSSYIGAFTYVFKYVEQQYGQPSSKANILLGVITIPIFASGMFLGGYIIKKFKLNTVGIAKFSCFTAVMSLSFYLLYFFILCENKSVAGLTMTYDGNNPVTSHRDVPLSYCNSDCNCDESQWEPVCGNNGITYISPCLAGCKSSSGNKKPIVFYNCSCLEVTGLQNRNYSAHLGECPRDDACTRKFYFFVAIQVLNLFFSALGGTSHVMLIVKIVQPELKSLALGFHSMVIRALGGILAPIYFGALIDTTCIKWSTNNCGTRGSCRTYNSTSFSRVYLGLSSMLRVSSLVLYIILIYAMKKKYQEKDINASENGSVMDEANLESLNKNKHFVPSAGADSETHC
Method: (§1) The evaluation of ATSP-7041 as a substrate for OATP1B1 was performed using OATP1B1-expressing HEK293 cells in 24- or 96-well plates according to the manufacturer’s protocol (v1.9 for OATP1B1) with minor modifications. In brief, after equilibration with the transport buffer, the buffer was replaced with a fresh transport buffer containing the indicated concentrations of ATSP-7041 or 1 μM E217βG in the presence or absence of positive control inhibitors (50 μM rifampicin or 10 μM cyclosporine). After incubation for the indicated time at 37 °C, the cells were immediately rinsed twice with an ice-cold transport buffer. Substrates were extracted by incubation with 400 μL (for 24-well) or 100 μL (for 96-well) of 0.1% formic acid in acetonitrile-containing internal standard (IS) (0.125 μM benzyl-ATSP-7041 for ATSP-7041 in uptake experiment of various concentrations of ATSP-7041 or 0.0125 μM for ATSP-7041 in all other experiments of benzyl-ATSP-7041 and 0.1 μM estradiol-3β-glucuronide) for 5 min at 20–25 °C, filtered using a PVDF-based filter, diluted 1.4 times (ATSP-7041) or 2 times (E217βG) with water, and analyzed using LC/MS.
LC/MS analysis data were quantified using Trace Finder 4.1 (Thermo Fisher Scientific, Waltham, MA, USA) for peak detection and area quantification. […] Differences in all figures were analyzed and all data were plotted using GraphPad Prism 9 (GraphPad Software). […]

OATP1B3 = molecular target: T2, OATP1B3 (Homo sapiens, UniProt Q9NPD5); experiment: Uptake by OATP1B3-expressing HEK293 cells (substrate evaluation); conditions: E217βG 3 μM, 5 min, 37 °C
T2 sequence (Q9NPD5 1-702): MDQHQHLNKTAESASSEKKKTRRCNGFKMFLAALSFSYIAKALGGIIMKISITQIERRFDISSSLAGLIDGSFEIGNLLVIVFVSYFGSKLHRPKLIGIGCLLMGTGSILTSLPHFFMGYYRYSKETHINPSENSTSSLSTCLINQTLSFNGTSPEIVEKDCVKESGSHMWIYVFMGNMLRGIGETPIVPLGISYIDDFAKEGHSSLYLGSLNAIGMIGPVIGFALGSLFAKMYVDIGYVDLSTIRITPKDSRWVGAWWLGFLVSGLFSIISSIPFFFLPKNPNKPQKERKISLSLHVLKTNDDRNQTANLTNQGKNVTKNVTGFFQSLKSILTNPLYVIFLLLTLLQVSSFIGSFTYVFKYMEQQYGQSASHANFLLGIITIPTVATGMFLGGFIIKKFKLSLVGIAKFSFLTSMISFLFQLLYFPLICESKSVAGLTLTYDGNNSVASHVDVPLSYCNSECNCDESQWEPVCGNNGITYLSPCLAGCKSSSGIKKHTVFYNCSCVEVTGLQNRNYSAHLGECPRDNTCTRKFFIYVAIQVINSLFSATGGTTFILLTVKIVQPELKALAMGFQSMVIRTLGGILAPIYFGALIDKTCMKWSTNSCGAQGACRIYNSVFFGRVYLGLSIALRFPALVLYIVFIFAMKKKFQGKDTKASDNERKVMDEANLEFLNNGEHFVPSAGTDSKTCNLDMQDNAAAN
Method: after the time course assessment (0, 5, 10, 20, 30, 40, and 60 min). Similarly, the inhibitory […]
measuring testosterone and 6β-hydroxytestosterone at 90 min, after the time course assessment (0, 10, 20, 40, 60, 90, and 120 min). Other human liver S9 (B, C, and D) fractions were also used to evaluate vendor differences. Midazolam, 1ʹ-hydroxymidazolam, testosterone, and 6β-hydroxytestosterone were detected using LC/MS.
4. Evaluation of ATSP-7041 as a substrate of transporters
The evaluation of ATSP-7041 as a substrate for OATP1B1 and OATP1B3 transporters was performed using OATP1B-expressing HEK293 cells in 24-well plates according to the manufacturer’s protocol (v1.9 for OATP1B1 and v2.0 for OATP1B3) with minor modifications.
In brief, after equilibration with the transport buffer, the buffer was replaced with a fresh transport buffer containing ATSP-7041 (0.2 μM) or E217βG (1 μM for OATP1B1 or 3 μM for OATP1B3). After incubation for 5 min at 37 °C, the cells were immediately rinsed twice with ice-cold transport buffer. Substrates were extracted by incubation with 400 μL of 0.1% formic acid in acetonitrile containing IS (0.0125 μM benzyl-ATSP-7041 and 0.1 μM estradiol-3β-glucuronide) for 5 min at 20-25 °C, filtered using a PVDF-based filter, diluted 1.4 times (ATSP-7041) or 2 times (E217βG) with water, and analyzed by LC/MS. […]

OATP1B1 [2] = molecular target: T1, OATP1B1
Method: as §1

OATP1B1 [3] = molecular target: T1, OATP1B1; remark: listed apart in the source
Method: The inhibitory activities of ATSP-7041 on OATP1B1 were evaluated using OATP1B-expressing HEK293 cells in 96-well plates as described above. For dose-dependent inhibition, ATSP-7041 at the indicated concentrations was added to the transport buffer, and E217βG was used as the substrate. To study the pre-incubation effect, the cells were pre-incubated with 10 μM ATSP-7041 or 10 μM cyclosporine in transport buffer after equilibration with the transport buffer for 30 min at 37 °C and washed twice before the replacement of the transport buffer containing E217βG.
LC/MS analysis data were quantified using Trace Finder 4.1 (Thermo Fisher Scientific, Waltham, MA, USA) for peak detection and area quantification. To study the transport activities of OATP1B1, the OATP1B1-mediated uptake of ATSP-7041 and E217βG was determined by normalization with IS (divide the area of ion peak) and subsequent background-corrected uptake using mock cells. To evaluate the inhibitory activities of ATSP-7041 on OATP1B1, transporter activities were determined as a percent of the control (activities without ATSP-7041) at each concentration, and the half maximal inhibitory concentration (IC50) for the inhibition of OATP1B1 activity by ATSP-7041 was determined by fitting a curve (inhibitor concentrations vs. normalized response) using GraphPad Prism 8 (GraphPad Software, San Diego, CA, USA). […]

in vitro = conditions: human, s9, pH 7.4
BCRP = molecular target: T3, BCRP (Homo sapiens, UniProt Q9UNQ0); experiment: ATP-dependent uptake by inside-out membrane vesicles expressing BCRP; conditions: Lucifer yellow 50 μM
T3 sequence (Q9UNQ0 1-655): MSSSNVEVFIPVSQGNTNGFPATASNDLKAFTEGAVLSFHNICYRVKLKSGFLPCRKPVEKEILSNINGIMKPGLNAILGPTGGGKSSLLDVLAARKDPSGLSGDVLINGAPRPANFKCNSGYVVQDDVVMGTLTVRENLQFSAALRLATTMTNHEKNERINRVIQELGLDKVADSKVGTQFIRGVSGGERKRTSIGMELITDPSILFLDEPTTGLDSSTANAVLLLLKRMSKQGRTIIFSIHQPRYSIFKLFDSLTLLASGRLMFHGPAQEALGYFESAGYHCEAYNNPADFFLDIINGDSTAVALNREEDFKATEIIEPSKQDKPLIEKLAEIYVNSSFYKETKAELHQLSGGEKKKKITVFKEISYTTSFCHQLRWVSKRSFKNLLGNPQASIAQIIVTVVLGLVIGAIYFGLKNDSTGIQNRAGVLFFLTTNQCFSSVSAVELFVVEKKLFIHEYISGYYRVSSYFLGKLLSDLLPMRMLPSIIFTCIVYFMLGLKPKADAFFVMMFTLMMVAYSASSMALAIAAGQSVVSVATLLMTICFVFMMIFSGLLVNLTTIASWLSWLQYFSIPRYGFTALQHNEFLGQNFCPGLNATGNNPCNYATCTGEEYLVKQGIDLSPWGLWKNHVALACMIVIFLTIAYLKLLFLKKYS

Chain of P-gp (P08183 whole entry): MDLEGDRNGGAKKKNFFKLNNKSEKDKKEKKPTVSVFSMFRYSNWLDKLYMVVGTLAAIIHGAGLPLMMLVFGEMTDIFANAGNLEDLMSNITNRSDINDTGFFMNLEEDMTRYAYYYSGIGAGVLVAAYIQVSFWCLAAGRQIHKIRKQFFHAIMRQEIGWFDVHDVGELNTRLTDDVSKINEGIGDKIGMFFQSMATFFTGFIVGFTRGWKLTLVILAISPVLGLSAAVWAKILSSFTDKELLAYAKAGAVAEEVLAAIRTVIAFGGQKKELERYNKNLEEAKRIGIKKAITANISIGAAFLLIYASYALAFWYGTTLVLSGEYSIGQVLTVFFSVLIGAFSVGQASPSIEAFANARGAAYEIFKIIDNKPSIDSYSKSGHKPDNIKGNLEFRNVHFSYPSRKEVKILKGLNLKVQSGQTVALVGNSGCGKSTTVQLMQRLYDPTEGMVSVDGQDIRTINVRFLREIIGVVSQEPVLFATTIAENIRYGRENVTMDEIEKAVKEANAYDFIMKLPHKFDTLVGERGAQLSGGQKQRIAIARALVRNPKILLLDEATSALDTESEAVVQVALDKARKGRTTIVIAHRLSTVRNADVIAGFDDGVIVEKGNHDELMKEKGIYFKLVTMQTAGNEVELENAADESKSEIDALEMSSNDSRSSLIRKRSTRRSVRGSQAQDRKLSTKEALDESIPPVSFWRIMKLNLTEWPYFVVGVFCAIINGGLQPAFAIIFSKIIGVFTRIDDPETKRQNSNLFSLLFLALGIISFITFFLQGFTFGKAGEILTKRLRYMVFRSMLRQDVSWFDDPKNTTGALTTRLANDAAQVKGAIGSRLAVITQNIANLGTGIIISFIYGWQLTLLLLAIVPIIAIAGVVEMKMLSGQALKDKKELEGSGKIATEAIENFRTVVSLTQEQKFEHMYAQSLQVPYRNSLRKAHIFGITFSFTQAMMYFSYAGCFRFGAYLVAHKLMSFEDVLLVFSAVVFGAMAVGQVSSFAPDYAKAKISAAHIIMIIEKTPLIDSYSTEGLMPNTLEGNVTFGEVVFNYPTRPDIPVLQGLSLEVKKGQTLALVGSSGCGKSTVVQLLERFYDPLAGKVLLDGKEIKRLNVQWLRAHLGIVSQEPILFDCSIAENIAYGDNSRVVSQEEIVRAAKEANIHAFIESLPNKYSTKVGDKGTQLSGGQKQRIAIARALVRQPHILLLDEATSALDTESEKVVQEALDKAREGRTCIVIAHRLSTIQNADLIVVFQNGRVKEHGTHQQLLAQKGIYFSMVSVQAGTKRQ

Question: For `C=C[C@H]1C[N+]2(C)CC[C@H]1C[C@@H]2[C@@H](O)c1ccnc2ccc(OC)cc12` [NMQ, N-methyl-quinidine], which “ATP-dependent uptake of positive control substrate by P-gp compared to mock vesicles” value (P-gp) is on record?
Answer: Its value is “clearly observed”.

Question: With `C[C@]12CC[C@@H]3c4ccc(O)cc4CC[C@H]3[C@@H]1CC[C@@H]2O[C@@H]1O[C@H](C(=O)O)[C@@H](O)[C@H](O)[C@H]1O` [E217βG, Estradiol-17β-glucuronide] as the compound, how does the “uptake of control substrate in OATP1B1-transfected HEK293 cells relative to mock cells” value (OATP1B1 [1]) read?
Answer: The value was “approximately 611 fold”.

Question: What about the “uptake of control substrate in OATP1B3-transfected HEK293 cells relative to mock cells” value (OATP1B3) of the same compound?
Answer: Its value is roughly 137 fold.

Question: With `CO[C@H]1/C=C/O[C@@]2(C)Oc3c(C)c(O)c4c(O)c(c(/C=N/N5CCN(C)CC5)c(O)c4c3C2=O)NC(=O)/C(C)=C\C=C\[C@H](C)[C@H](O)[C@@H](C)[C@@H](O)[C@@H](C)[C@H](OC(C)=O)[C@@H]1C` [rifampicin] as the compound, how does the “uptake of control substrate E217βG by OATP1B1-expressing HEK293 cells with inhibitor, % of without inhibitor” value (OATP1B1 [2]; rifampicin 50 μM, E217βG 1 μM, 5 min co-incubation) read?
Answer: Its value is less than 4%.

Question: And the “effect of index inhibitors on OATP1B1-dependent uptake of ATSP-7041” value (OATP1B1 [2]; substrate ATSP-7041 0.2 μM, rifampicin 50 μM or cyclosporine 10 μM, 5 and 60 min, 37 °C)?
Answer: Its value is “significantly inhibited”.

Question: Which IC50 (OATP1B1 [3]) does the source give for `CC(=O)N[C@@H](CC(C)C)C(=O)N[C@H](C(=O)N[C@@H](Cc1ccccc1)C(=O)N[C@]1(C)CCCCCCC=CCCC[C@@](C)(C(=O)N[C@@H](CO)C(=O)N[C@@H](C)C(=O)N[C@@H](C)C(N)=O)NC(=O)[C@H](CC2CCC2)NC(=O)[C@H](CCC(N)=O)NC(=O)[C@H](C)NC(=O)[C@H](Cc2c[nH]c3ccccc23)NC(=O)[C@H](Cc2ccc(O)cc2)NC(=O)[C@H](CCC(=O)O)NC1=O)[C@@H](C)O` [ATSP-7041] here?
Answer: Its IC50 is 810 nM.

Question: And the inhibition at 10 µM (OATP1B1 [3])?
Answer: Its inhibition at 10 µM is greater than 96%.

Question: And the remaining at 24 h, 0.5 μM (in vitro)?
Answer: Its remaining at 24 h, 0.5 μM is 91.6%.

Question: Which “ATP-dependent uptake of positive control substrate by BCRP compared to mock vesicles” value (BCRP) does the source give for Lucifer yellow here?
Answer: The value was “clearly observed”.
